# US7560475B2, “Phenylacetic acid derivative, process for producing the same, and use” (Ono Pharmaceutical Co., Ltd., priority 2003, dated 2009)
# Experiments:
# human PPAR δ = target: T1, human PPAR δ (Homo sapiens, UniProt Q03181); test: Luciferase assay using human PPAR δ (Gal4-PPAR chimeric receptor reporter in CV-1 cells); format: cell-based; conditions: relative to 30 μM carbacyclin defined as 1, 42 hours
# T1 construct: expressed in transfected cells; host or cells: CV-1 cells
# T1 sequence (Q03181 139-441): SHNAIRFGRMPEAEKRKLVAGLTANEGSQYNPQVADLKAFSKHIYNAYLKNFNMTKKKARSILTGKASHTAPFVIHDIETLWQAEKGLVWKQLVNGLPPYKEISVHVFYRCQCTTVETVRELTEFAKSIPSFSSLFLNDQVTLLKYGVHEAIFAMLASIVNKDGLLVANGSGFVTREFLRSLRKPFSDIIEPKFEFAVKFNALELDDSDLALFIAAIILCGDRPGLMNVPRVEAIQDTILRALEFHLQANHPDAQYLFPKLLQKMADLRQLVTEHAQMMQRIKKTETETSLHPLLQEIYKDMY
# 7-weeks old male mice = test: Lowering effect of blood cholesterol and blood lipid in mice loaded with high cholesterol diets; format: in vivo; conditions: high cholesterol diet mice, plasma, vehicle administration group defined as 100%
# Experimental: High cholesterol diets (CRF-1 solid pellet mixed of 5.5% peanut oil, 1.5% cholesterol, 0.5% cholic acid, Oriental Bio Service) are loaded to 7-weeks old male mice for six days and then the body weight of food-deprived […] are measured, the following various parameter levels are measured. The measurement items are LDL, HDL, TG level, NEFA, and TC level. Mice are divided into five per group based on TC level and the division was performed without bias in the average of other parameters. From the next day to six days in a row, the suspended solution of the compounds in vehicle (0.5% methylcellulose aqueous solution) are orally compellingly administered once daily and the loading of high cholesterol diets is continued. After the next day of termination of final administration (the 7th day of administration onset), plasma lipid (TG HDL, LDL, NEFA, TC level) is measured.
# The relative activity of the compounds of the present invention was calculated under the condition that the value of vehicle administration group was defined as 100%. And then HDL cholesterol elevating effect and LDL cholesterol lowering effect of the compound prepared in Example 33 are shown in Table 2.
# [1] = dose 3 mg/kg orally once daily for six days
# [2] = dose 10 mg/kg orally once daily for six days
# [3] = dose 30 mg/kg orally once daily for six days
smiles,measurement,setting,value
"Cc1sc(N2CCC(C(F)(F)F)CC2)nc1CCOc1cccc(CC(=O)O)c1F [Example 33, [2-fluoro-3-(2-{5-methyl-2-[4-(trifluoromethyl)piperidin-1-yl]-1,3-thiazol-4-yl}ethoxy)phenyl]acetic acid]",Fold increase of transcriptional activation,human PPAR δ; final concentration 0.1 μM,0.47
same,Fold increase of transcriptional activation,human PPAR δ; final concentration 0.3 μM,1.08
same,Fold increase of transcriptional activation,human PPAR δ; final concentration 1.0 μM,1.23
same,HDL cholesterol elevating effect,7-weeks old male mice; [1],150.0%
same,LDL cholesterol lowering effect,7-weeks old male mice; [1],82.5%
same,HDL cholesterol elevating effect,7-weeks old male mice; [2],162.7%
same,LDL cholesterol lowering effect,7-weeks old male mice; [2],75.7%
same,HDL cholesterol elevating effect,7-weeks old male mice; [3],157.3%
same,LDL cholesterol lowering effect,7-weeks old male mice; [3],72.3%
